# Measured values: US8673908B2, “Kynurenine production inhibitor” (Kyowa Hakko Kirin Co., Ltd., priority 2008, dated 2014)
# Test system: kynurenine production in IFN-γ-treated KATO-III cells
# Test: Inhibitory activity on kynurenine production (Test Example 1)
# Type: cell-based
# Settings: Homo sapiens, IFN-γ treatment, culture for 96 hours, read-out: IC50 value, inhibition of kynurenine production
# How it was run: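 KATO-III human gastric cancer cells (2,000/well, RPMI 1640 + 10% FBS) were cultured with compound and IFN-γ (31.25 ng/mL in the cell suspension), DMSO ≤0.1%, for 96 h at 37 °C, 5% CO2. Kynurenine was read at A480 after TCA at 65 °C and p-dimethylaminobenzaldehyde. Inhibition used IFN-γ-treated and untreated DMSO wells as references.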
row,IC50,SMILES
1,< 1000 nM,"Cc1noc(C)c1S(=O)(=O)Nc1nc2ccccc2nc1OC(c1cccnc1)C(F)(F)F (stereo not shown) [Compound 155, 3,5-dimethyl-N-{3-[2,2,2-trifluoro-1-(pyridin-3-yl)ethoxy]-quinoxalin-2-yl}isoxazole-4-sulfonamide]"
2,< 1000 nM,"Cc1ccccc1S(=O)(=O)Nc1nc2ccccc2nc1OC(c1cccnc1)C(F)(F)F (stereo not shown) [Compound 156, 2-methyl-N-{3-[2,2,2-trifluoro-1-(pyridin-3-yl)ethoxy]-quinoxalin-2-yl}benzenesulfonamide]"
3,< 1000 nM,"Nc1ccccc1S(=O)(=O)Nc1nc2ccccc2nc1OC(c1cccnc1)C(F)(F)F (stereo not shown) [Compound 157, 2-amino-N-{3-[2,2,2-trifluoro-1-(pyridin-3-yl)ethoxy]-quinoxalin-2-yl}benzenesulfonamide]"
4,< 1000 nM,"COc1ccccc1S(=O)(=O)Nc1nc2ccccc2nc1OC(c1cccnc1)C(F)(F)F (stereo not shown) [Compound 158, 2-methoxy-N-{3-[2,2,2-trifluoro-1-(pyridin-3-yl)ethoxy]-quinoxalin-2-yl}benzenesulfonamide]"
5,< 1000 nM,"O=S(=O)(Nc1nc2ccccc2nc1OCCCc1cccnc1)c1cccc(Cl)c1Cl [Compound 159, 2,3-dichloro-N-{3-[3-(pyridin-3-yl)propoxy]quinoxalin-2-yl}benzenesulfonamide]"
6,< 1000 nM,"O=S(=O)(Nc1nc2ccccc2nc1OC(c1cccnc1)C(F)(F)F)c1ccsc1 (stereo not shown) [Compound 161, N-{3-[2,2,2-trifluoro-1-(pyridin-3-yl)ethoxy]quinoxalin-2-yl}thiophene-3-sulfonamide]"
7,< 1000 nM,"Cc1cc(S(=O)(=O)Nc2nc3ccccc3nc2OC(c2cccnc2)C(F)(F)F)c(C)s1 (stereo not shown) [Compound 162, 2,5-dimethyl-N-{3-[2,2,2-trifluoro-1-(pyridin-3-yl)ethoxy]-quinoxalin-2-yl}thiophene-3-sulfonamide]"
8,< 1000 nM,"Cc1nc(C)c(S(=O)(=O)Nc2nc3ccccc3nc2OC(c2cccnc2)C(F)(F)F)s1 (stereo not shown) [Compound 163, 2,4-dimethyl-N-{3-[2,2,2-trifluoro-1-(pyridin-3-yl)ethoxy]-quinoxalin-2-yl}thiazole-5-sulfonamide]"
9,< 1000 nM,"O=S(=O)(Nc1nc2ccccc2nc1OC(c1cccnc1)C(F)(F)F)c1cc2ccccc2s1 (stereo not shown) [Compound 164, N-{3-[2,2,2-trifluoro-1-(pyridin-3-yl)ethoxy]quinoxalin-2-yl}benzo[b]thiophene-2-sulfonamide]"
10,< 1000 nM,"CN1CCOc2cc(S(=O)(=O)Nc3nc4ccccc4nc3OC(c3cccnc3)C(F)(F)F)ccc21 (stereo not shown) [Compound 165, 4-methyl-N-{3-[2,2,2-trifluoro-1-(pyridin-3-yl)ethoxy]-quinoxalin-2-yl}-3,4-dihydro-2H-benzo[b][1,4]oxazine-7-sulfonamide]"
11,< 1000 nM,"CC(C)(COc1nc2ccccc2nc1NS(=O)(=O)c1ccccc1Cl)c1cccnc1 [Compound 167, 2-chloro-N-{3-[2-methyl-2-(pyridin-3-yl)propoxy]quinoxalin-2-yl}benzenesulfonamide]"
12,< 1000 nM,"CC(C)S(=O)(=O)Nc1nc2ccccc2nc1OC(c1cccnc1)C(F)(F)F (stereo not shown) [Compound 168, N-{3-[2,2,2-trifluoro-1-(pyridin-3-yl)ethoxy]quinoxalin-2-yl}propane-2-sulfonamide]"
13,< 1000 nM,"O=S(=O)(Nc1nc2ccccc2nc1OC(c1cccnc1)C(F)(F)F)C1CCCC1 (stereo not shown) [Compound 169, N-{3-[2,2,2-trifluoro-1-(pyridin-3-yl)ethoxy]quinoxalin-2-yl}cyclopentanesulfonamide]"
14,< 1000 nM,"Cc1nn(C)c(Cl)c1S(=O)(=O)Nc1nc2ccccc2nc1OC(c1cncn1C)C(F)(F)F (stereo not shown) [Compound 170, 5-chloro-1,3-dimethyl-N-{3-[2,2,2-trifluoro-1-(1-methyl-1H-imidazol-5-yl)ethoxy]quinoxalin-2-yl}-1H-pyrazole-4-sulfonamide]"
15,< 1000 nM,"Cc1noc(C)c1S(=O)(=O)Nc1nc2ccccc2nc1OC(c1cncn1C)C(F)(F)F (stereo not shown) [Compound 171, 3,5-dimethyl-N-{3-[2,2,2-trifluoro-1-(1-methyl-1H-imidazol-5-yl)ethoxy]quinoxalin-2-yl}isoxazole-4-sulfonamide]"
16,< 1000 nM,"O=S(=O)(Nc1nc2ccccc2nc1OC(CCc1cccnc1)C(F)(F)F)c1ccccc1Cl (stereo not shown) [Compound 172, 2-chloro-N-{3-[1,1,1-trifluoro-4-(pyridin-3-yl)butan-2-yloxy]quinoxalin-2-yl}benzenesulfonamide]"
17,< 1000 nM,"O=S(=O)(Cc1ccccc1Cl)Nc1nc2ccccc2nc1OC(c1cccnc1)C(F)(F)F (stereo not shown) [Compound 173, 1-(2-chlorophenyl)-N-{3-[2,2,2-trifluoro-1-(pyridin-3-yl)-ethoxy]quinoxalin-2-yl}methanesulfonamide]"
18,< 1000 nM,"CN(C)S(=O)(=O)Nc1nc2ccccc2nc1OC(c1cccnc1)C(F)(F)F (stereo not shown) [Compound 174, N-{3-[2,2,2-trifluoro-1-(pyridin-3-yl)ethoxy]quinoxalin-2-yl}-N′,N′-dimethyl-sulfuric diamide]"

row,IC50,SMILES
1,< 1000 nM,"Cn1cncc1C(Oc1nc2ccccc2nc1NS(=O)(=O)c1ccccc1Cl)C(F)(F)F (stereo not shown) [Compound 175, 2-chloro-N-{3-[2,2,2-trifluoro-1-(1-methyl-1H-imidazol-5-yl)ethoxy]quinoxalin-2-yl}benzenesulfonamide]"
2,< 1000 nM,"CC(COc1nc2ccccc2nc1NS(=O)(=O)c1ccccc1Cl)Cc1cccnc1 (stereo not shown) [Compound 176, 2-chloro-N-{3-[2-methyl-3-(pyridin-3-yl)propoxy]quinoxalin-2-yl}benzenesulfonamide]"
3,< 1000 nM,"Cc1noc(C)c1S(=O)(=O)Nc1nc2ccccc2nc1OC(c1cncs1)C(F)(F)F (stereo not shown) [Compound 178, 3,5-dimethyl-N-{3-[2,2,2-trifluoro-1-(thiazol-5-yl)ethoxy]-quinoxalin-2-yl}isoxazole-4-sulfonamide]"
4,< 1000 nM,"CC(C)CS(=O)(=O)Nc1nc2ccccc2nc1OC(c1cccnc1)C(F)(F)F (stereo not shown) [Compound 180, 2-methyl-N-{3-[2,2,2-trifluoro-1-(pyridin-3-yl)ethoxy]-quinoxalin-2-yl}propane-1-sulfonamide]"
5,< 1000 nM,"O=S(=O)(Nc1nc2ccccc2nc1OC(c1cccnc1)C(F)(F)F)c1cccc(Cl)c1 (stereo not shown) [Compound 181, 3-chloro-N-{3-[2,2,2-trifluoro-1-(pyridin-3-yl)ethoxy]-quinoxalin-2-yl}benzenesulfonamide]"
6,< 1000 nM,"O=S(=O)(Nc1nc2ccccc2nc1OC(c1cccnc1)C(F)(F)F)c1ccc(Cl)cc1 (stereo not shown) [Compound 182, 4-chloro-N-{3-[2,2,2-trifluoro-1-(pyridin-3-yl)ethoxy]-quinoxalin-2-yl}benzenesulfonamide]"
7,< 1000 nM,"O=S(=O)(Nc1nc2ccccc2nc1OC(c1cccnc1)C(F)(F)F)C1CCCCC1 (stereo not shown) [Compound 183, N-{3-[2,2,2-trifluoro-1-(pyridin-3-yl)ethoxy]quinoxalin-2-yl}cyclohexanesulfonamide]"
8,< 1000 nM,"Cc1nn(C)c(Cl)c1S(=O)(=O)Nc1nc2ccccc2nc1OC(c1ccccc1)C(F)(F)F (stereo not shown) [Compound 184, 5-chloro-1,3-dimethyl-N-[3-(2,2,2-trifluoro-1-phenyl-ethoxy)quinoxalin-2-yl]-1H-pyrazole-4-sulfonamide]"
9,< 1000 nM,"Cc1noc(C)c1S(=O)(=O)Nc1nc2ccccc2nc1OC(c1ccccc1)C(F)(F)F (stereo not shown) [Compound 185, 3,5-dimethyl-N-[3-(2,2,2-trifluoro-1-phenylethoxy)-quinoxalin-2-yl]isoxazole-4-sulfonamide]"
10,< 1000 nM,"Cc1nn(C)c(Cl)c1S(=O)(=O)Nc1nc2ccccc2nc1OC(c1cncs1)C(F)(F)F (stereo not shown) [Compound 186, 5-chloro-1,3-dimethyl-N-{3-[2,2,2-trifluoro-1-(thiazol-5-yl)ethoxy]quinoxalin-2-yl}-1H-pyrazole-4-sulfonamide]"
11,< 1000 nM,"CCC(C)S(=O)(=O)Nc1nc2ccccc2nc1OC(c1cccnc1)C(F)(F)F (stereo not shown) [Compound 187, N-{3-[2,2,2-trifluoro-1-(pyridin-3-yl)ethoxy]quinoxalin-2-yl}butane-2-sulfonamide]"
12,< 1000 nM,"O=S(=O)(Nc1nc2ccccc2nc1OC(c1cccnc1)C(F)(F)F)N1CCOCC1 (stereo not shown) [Compound 188, N-{3-[2,2,2-trifluoro-1-(pyridin-3-yl)ethoxy]quinoxalin-2-yl}morpholine-4-sulfonamide]"
13,< 1000 nM,"O=S(=O)(Nc1nc2ccccc2nc1OC(c1cccnc1)C(F)(F)F)NC1CC1 (stereo not shown) [Compound 189, N-cyclopropyl-N′-{3-[2,2,2-trifluoro-1-(pyridin-3-yl)-ethoxy]quinoxalin-2-yl}sulfuric diamide]"
14,< 1000 nM,"CCS(=O)(=O)Nc1nc2ccccc2nc1OC(c1cccnc1)C(F)(F)F (stereo not shown) [Compound 190, N-{3-[2,2,2-trifluoro-1-(pyridin-3-yl)ethoxy]quinoxalin-2-yl}ethanesulfonamide]"
15,< 1000 nM,"CCCCS(=O)(=O)Nc1nc2ccccc2nc1OC(c1cccnc1)C(F)(F)F (stereo not shown) [Compound 191, N-{3-[2,2,2-trifluoro-1-(pyridin-3-yl)ethoxy]quinoxalin-2-yl}butane-1-sulfonamide]"
16,< 1000 nM,"CCCS(=O)(=O)Nc1nc2ccccc2nc1OC(c1ccc(C)nc1)C(F)(F)F (stereo not shown) [Compound 192, N-{3-[2,2,2-trifluoro-1-(6-methylpyridin-3-yl)ethoxy]-quinoxalin-2-yl}propane-1-sulfonamide]"
17,< 1000 nM,"O=S(=O)(CC(F)(F)F)Nc1nc2ccccc2nc1OC(c1cccnc1)C(F)(F)F (stereo not shown) [Compound 193, 2,2,2-trifluoro-N-{3-[2,2,2-trifluoro-1-(pyridin-3-yl)-ethoxy]quinoxalin-2-yl}ethanesulfonamide]"
18,< 1000 nM,"CCCNS(=O)(=O)Nc1nc2ccccc2nc1OC(c1cccnc1)C(F)(F)F (stereo not shown) [Compound 194, N-propyl-N′-{3-[2,2,2-trifluoro-1-(pyridin-3-yl)ethoxy]-quinoxalin-2-yl}sulfuric diamide]"

row,SMILES,IC50
1,"CC(CCOc1nc2ccccc2nc1NS(=O)(=O)c1ccccc1Cl)c1cccnc1 (stereo not shown) [Compound 177, 2-chloro-N-{3-[3-(pyridin-3-yl)butoxy]quinoxalin-2-yl}-benzenesulfonamide]",< 1000 nM
